Reference: US20130317134A1, “TISSUE ADHESIVE BASED ON TRIFUNCTIONAL ASPARTATES” (Bayer Intellectual Property GmbH Creative Campus Monheim, priority 2011, published 2013)

Tested on: L929 cells
Experiment: Cytotoxicity of the cured adhesive in accordance with ISO 10993-5:2009
Format: cell-based
Conditions: adhesive of Prepolymer C cured with equivalent amount of curing agent
Procedure: Prepolymer C was reacted with an equivalent amount of 3. The cytotoxicity was measured in accordance with ISO 10993-5:2009 using L929 cells.
4 g of prepolymer C were stirred thoroughly in a beaker with an equivalent amount of (5) and cured. The adhesive was measured in accordance with ISO 10993-5:2009 using L929 cells.

Structure (SMILES)	cell viability	cytotoxicity category
CCOC(=O)CC(NCCCC(CCCNC(CC(=O)OCC)C(=O)OCC)CCCNC(CC(=O)OCC)C(=O)OCC)C(=O)OCC (stereo not drawn) [Compound 3, Tetraethyl 2,2′-(4-(3-(1,4-diethoxy-1,4-dioxobutan-2-ylamino)propyl)heptane-1,7-diyl)bis-(azandiyl)disuccinate]	no reduction in cell viability	not to be categorised as cytotoxic
CCOC(=O)CC(NCCCCC(CCCNC(CC(=O)OCC)C(=O)OCC)CNC(CC(=O)OCC)C(=O)OCC)C(=O)OCC (stereo not drawn) [Compound 5, Diethyl 2-[(8-[(1,4-diethoxy-1,4-dioxobutan-2-yl)amino]-4-{[(1,4-diethoxy-1,4-dioxobutan-2-yl)-amino]methyl}octyl)amino]butanedioate, reference compound]	–	high cyctotoxicity
